≈ marks a conversion by molar mass, not a printed value. Read-outs that look alike come from different tables or passages of the source.
What was measured:
[1] = test system: MSSA; experiment: Broth microdilution MIC; format: cell-based, S. aureus; settings: Staphylococcus aureus
Experimental: Once it was determined that this specific 4,5-disubstitution pattern imparted microbicidal activity onto the 2-AI framework, this activity was quantified by measuring the MIC of each derivative against a variety of representative pathogenic bacterial strains using the microdilution protocol (CSLI, Performance Standards for Antimicrobial Suceptibility Testing; Nineteenth Informational Supplement, Clinical and Laboratory Standards Institute, Wayne, Pa., 2009). E. coli, MDRAB, P. aeruginosa, MRSA, MSSA, S. epidermidis and VRE were used for initial evaluation. From this screen, compound 15 was determined to be the lead compound and had MIC values (μg/mL) of 2, 2, 1, 0.5, 0.25, and 1 against E. coli, MDRAB, MRSA, VRE, S. Epidermidis and MSSA.
S. aureus (ATCC #29213), S. epidermidis (ATCC #29886), MRSA (ATCC # BAA-44), MDRAB (ATCC # BAA-1605), vancomycin resistant Enterococcus faecium (VRE) (ATCC #51559) and E. coli (ATCC #35695) were obtained from the ATCC. Mechanically difibrinated sheep blood (DSB100) was obtained from Hemostat Labs. Mueller-Hinton medium was purchased from Fluka (#70192).
Broth Microdilution Method for MIC Determination.

[2] = test system: MDRAB; experiment: Biofilm formation inhibition, crystal violet reporter assay; format: cell-based
Experimental: (§1) The ability of each member of the pilot library to inhibit either E. coli or MDRAB biofilm formation at 100 μM was assessed using a crystal violet reporter assay (O'Toole et al., Mol. Microbiol., 1998, 30: 295-304).

[3] = Dye dispersion assay from synthetic vesicles; settings: 5 minutes
Experimental: Finally, given that active compounds are characterized by a polar head group and a lipophilic tail, it was probed whether compounds 15 and 19 were eliciting their activity via a pore forming mechanism. Compound 1 was used as a control. This was probed via a dye dispersion assay from synthetic vesicles (Liu et al., J. Am. Chem. Soc., 2001, 123, 7553-7559). Two types of vesicles were prepared, one containing 1-palmitoyl-2-oleoyl-sn-glycero-3-phosphocholine (POPC) and the other containing 1-palmitoyl-2-oleoyl-sn-glycero-3-phosphoglycerol (POPG). POPC mimics typical cell membranes encountered for mammalian red blood cells, while POPG mimics the negatively charged lipids encountered in bacterial membranes. In 5 minutes, at 25 μM, compounds 15 and 19 elicited 20% dye leakage from the POPG vesicles while they elicited 10% and 15% dye leakage from the POPC vesicles respectively. However, in 5 minutes at 500 μM, compounds 15 and 19 elicited 78% and 85% dye leakage from the POPG vesicles respectively. In 5 minutes at 25 μM, control compound 1 elicited 9% and 18% leak dye leakage from the POPC and POPG vesicles respectively, while in 5 minutes at 500 μM 1 elicited 15% and 50% leakage from the POPC and POPG vesicles. Given this differential response, and without wishing to be bound by theory, it is likely that compounds 15 and 19 are inducing microbicidal activity through a simple pore-forming mechanism.

[4] = test system: difibrinated sheep's blood; experiment: Red blood cell hemolysis assay; format: cell-based
Experimental: Once the anti-biofilm and antibacterial properties of each 2-AI derivative had both been evaluated, the hemolytic potential of compounds 15, 19 and 1 was assessed (Liu et al., Antimicrob. Agents. Ch., 2007, 51: 597-603). […] Hemolysis was measured using difibrinated sheep's blood. Hemolytic potential was quantified by determining the HD50 of compound 15, 19 and 1, where HD50 is defined as the concentration that elicits 50% hemolysis. From this assay, we determined that the HD50 of compound 15, 19 and 1 were 66 μM, 61 μM and >400 μM. This corresponds to 22 and 21 μg/mL for compounds 15 and 19.
Red Blood Cell Hemolysis Assay.
Hemolysis assays were performed on mechanically difibrinated sheep blood (Hemostat Labs: DSB100). 1.5 mL of blood was placed into a microcentrifuge tube and centrifuged at 10000 rpm for ten minutes. The supernatant was removed and then the cells were resuspended with 1 mL of phosphate-buffered saline (PBS). The suspension was centrifuged, the supernatant was removed and cells resuspended two more times. The final cell suspension was then diluted tenfold. Test compound solutions were made in PBS and then added to aliquots of the tenfold suspension dilution. PBS alone was used as a negative control and as a zero hemolysis marker whereas a 1% Triton X sample was used as a positive control and the 100% lysis marker. Samples were then placed in an incubator at 37° C. while being shaken at 200 rpm for one hour. After one hour, the samples were transferred to microcentrifuge tubes and then centrifuged at 10000 rpm for ten minutes. The resulting supernatant was diluted by a factor of 40 in distilled water. The absorbance of the supernatant was measured with a UV spectrometer at a 540 nm wavelength.

[5] = test system: E. coli; experiment: Growth curve analysis (A600); format: cell-based; settings: at IC50 concentration (13 μM)
Source text: (§2) This is typically indicative of biofilm inhibition via a traditional microbicidal mechanism instead of a mechanism that modulates biofilm formation through non-microbicidal mechanisms. […] At this concentration, a 97% reduction in bacterial growth was observed.

[6] = test system: Rhodospirillum salexigens; experiment: Marine bacteria microdilution MIC; settings: R. salexigens
[7] = test system: E. coli; experiment: Biofilm formation inhibition, crystal violet reporter assay; format: cell-based; settings: Escherichia coli
Experimental: as §1, §2

Structure (SMILES): CCCCCc1[nH]c(N)nc1CCCCCc1ccccc1 [Compound 15, 5-pentyl-4-(5-phenylpentyl)-1H-imidazol-2-amine]
- MIC [1]: 1 µg/mL (≈ 3.34 µM)
- inhibition at 100 µM [2]: 80.3 ± 8.1%
- dye leakage ([3]; POPC vesicles, 25 μM): 10%
- dye leakage ([3]; POPG vesicles, 25 μM): 20%
- dye leakage ([3]; POPG vesicles, 500 μM): 78%
- HD50 (concentration that elicits 50% hemolysis) [4]: 66 µM
- HD50 (concentration that elicits 50% hemolysis) ([4]; converted from μM): 22 µg/mL
- reduction in bacterial growth [5]: 97%
- MIC [6]: 2.10 µg/mL (≈ 7.01 µM)
- MIC ([6]; Rhodothalassium salexigens): 2.1 µg/mL (≈ 7.01 µM)
- inhibition at 100 µM ([7]; 100 μM): 83 ± 0.8%
- IC50 ([7]; dose-response): 13 µM

Structure (SMILES): CCCCCCc1[nH]c(N)nc1CCCCCc1ccccc1 [Compound 19, 5-hexyl-4-(5-phenylpentyl)-1H-imidazol-2-amine]
- MIC [1]: 1 µg/mL (≈ 3.19 µM)
- dye leakage ([3]; POPC vesicles, 25 μM): 15%
- dye leakage ([3]; POPG vesicles, 25 μM): 20%
- dye leakage ([3]; POPG vesicles, 500 μM): 85%
- HD50 (concentration that elicits 50% hemolysis) [4]: 61 µM
- HD50 (concentration that elicits 50% hemolysis) ([4]; converted from μM): 21 µg/mL
- MIC [6]: 1.09 µg/mL (≈ 3.48 µM)
- MIC ([6]; Rhodothalassium salexigens): 1.1 µg/mL (≈ 3.51 µM)

— patent US9815794B2, “Inhibition of bacterial biofilms and microbial growth with imidazole derivatives” (North Carolina State University, priority 2011, dated 2017)
